Experimental data published in PubChem BioAssay (NCI).
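These data come from cells grown in 96-well plates and exposed to compound for 48 hours at five concentrations. TGI is the concentration that stops growth completely.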

Tests used:
Assay in all cases: growth of human tumour cells (NCI), 48 h
[1] = system: KM12 colon
[2] = system: BT-549 breast
[3] = system: PC-3 prostate
[4] = system: MOLT-4 leukemia
[5] = system: SF-268 CNS
[6] = system: NCI-H522 lung
[7] = system: OVCAR-8 ovarian
[8] = system: MCF7 breast
[9] = system: SK-MEL-28 melanoma
[10] = system: T-47D breast
[11] = system: HS 578T breast
[12] = system: SN12C renal
[13] = system: OVCAR-3 ovarian
[14] = system: EKVX NSCLC
[15] = system: RPMI-8226 leukemia
[16] = system: CAKI-1 renal
[17] = system: MDA-MB-435
[18] = system: SR leukemia
[19] = system: MALME-3M melanoma
[20] = system: ACHN renal
[21] = system: HOP-62 NSCLC
[22] = system: COLO 205 colon
[23] = system: A549 NSCLC
[24] = system: HCT-116 colon
[25] = system: HCC-2998 colon
[26] = system: SW-620 colon
[27] = system: SNB-75 CNS
[28] = system: HT29 colon
[29] = system: MDA-MB-231 breast
[30] = system: NCI-H23 lung
[31] = system: OVCAR-4 ovarian
[32] = system: HOP-92 NSCLC
[33] = system: NCI/ADR-RES ovarian
[34] = system: SF-295 CNS
[35] = system: UO-31 renal
[36] = system: SNB-19 CNS
[37] = system: NCI-H226 lung
[38] = system: CCRF-CEM leukemia
[39] = system: HCT-15 colon
[40] = system: SK-OV-3 ovarian
[41] = system: MDA-N
[42] = system: LOX IMVI melanoma
[43] = system: TK-10 renal
[44] = system: U251 CNS
[45] = system: HL-60(TB) leukemia
[46] = system: K-562 leukemia
[47] = system: IGROV1 ovarian
[48] = system: SK-MEL-5 melanoma
[49] = system: DU-145 prostate
[50] = system: OVCAR-5 ovarian
[51] = system: M14 melanoma
[52] = system: 786-0 renal
[53] = system: NCI-H460 lung
[54] = system: UACC-62 melanoma
[55] = system: SF-539 CNS
[56] = system: RXF 393 renal
[57] = system: UACC-257 melanoma
[58] = system: SK-MEL-2 melanoma
[59] = system: A498 renal

For `COC(=O)C(Cc1ccccc1)NC(=O)CCCNC(=O)OCc1ccccc1` (stereo not drawn), the TGI [1] was greater than 100 µM, the TGI [2] was greater than 100 µM and the TGI [3] was greater than 100 µM. The TGI [4] was greater than 100 µM, the TGI [5] was greater than 100 µM and the TGI [6] was greater than 100 µM. For the same compound, the TGI [7] was greater than 100 µM, the TGI [8] was greater than 100 µM and the TGI [9] was greater than 100 µM. For the same compound, the TGI [10] was greater than 100 µM, the TGI [11] was greater than 100 µM and the TGI [12] was greater than 100 µM. It also gave a TGI [13] greater than 100 µM, a TGI [14] greater than 100 µM and a TGI [15] greater than 100 µM. For the same compound, the TGI [16] was greater than 100 µM, the TGI [17] was greater than 100 µM and the TGI [18] was greater than 100 µM. For the same compound, the TGI [19] was 82.7 µM, the TGI [20] was greater than 100 µM and the TGI [21] was greater than 100 µM. For the same compound, the TGI [22] was greater than 100 µM, the TGI [23] was greater than 100 µM and the TGI [24] was greater than 100 µM. For the same compound, the TGI [25] was greater than 100 µM, the TGI [26] was greater than 100 µM and the TGI [27] was greater than 100 µM. For the same compound, the TGI [28] was greater than 100 µM, the TGI [29] was greater than 100 µM and the TGI [30] was greater than 100 µM. For the same compound, the TGI [31] was greater than 100 µM, the TGI [32] was greater than 100 µM and the TGI [33] was greater than 100 µM. For the same compound, the TGI [34] was greater than 100 µM, the TGI [35] was greater than 100 µM and the TGI [36] was greater than 100 µM. The TGI [37] was greater than 100 µM, the TGI [38] was greater than 100 µM and the TGI [39] was greater than 100 µM. The TGI [40] was greater than 100 µM, the TGI [41] was greater than 100 µM and the TGI [42] was greater than 100 µM. For the same compound, the TGI [43] was greater than 100 µM, the TGI [44] was greater than 100 µM and the TGI [45] was greater than 100 µM. The TGI [46] was greater than 100 µM, the TGI [47] was greater than 100 µM and the TGI [48] was 46.8 µM. It also gave a TGI [49] greater than 100 µM, a TGI [50] greater than 100 µM and a TGI [51] of 32.5 µM. The TGI [52] was greater than 100 µM, the TGI [53] was greater than 100 µM and the TGI [54] was greater than 100 µM.
Work on `c1ccc(COc2ncccc2C2SCCCS2)cc1` yielded a TGI [1] greater than 100 µM, a TGI [2] greater than 100 µM and a TGI [55] greater than 100 µM. It also gave a TGI [3] greater than 100 µM, a TGI [5] greater than 100 µM and a TGI [6] greater than 100 µM. For the same compound, the TGI [7] was greater than 100 µM, the TGI [8] was greater than 100 µM and the TGI [9] was greater than 100 µM. It also gave a TGI [10] greater than 100 µM, a TGI [11] greater than 100 µM and a TGI [12] greater than 100 µM. The TGI [13] was greater than 100 µM, the TGI [14] was greater than 100 µM and the TGI [15] was greater than 100 µM. For the same compound, the TGI [16] was greater than 100 µM, the TGI [17] was greater than 100 µM and the TGI [18] was greater than 100 µM. It also gave a TGI [19] greater than 100 µM, a TGI [20] greater than 100 µM and a TGI [21] greater than 100 µM. The TGI [22] was greater than 100 µM, the TGI [23] was greater than 100 µM and the TGI [24] was greater than 100 µM. The TGI [25] was greater than 100 µM, the TGI [26] was greater than 100 µM and the TGI [56] was greater than 100 µM. For the same compound, the TGI [29] was greater than 100 µM, the TGI [30] was greater than 100 µM and the TGI [31] was greater than 100 µM. It also gave a TGI [32] greater than 100 µM, a TGI [33] greater than 100 µM and a TGI [57] greater than 100 µM. It also gave a TGI [34] greater than 100 µM, a TGI [58] greater than 100 µM and a TGI [35] greater than 100 µM. It also gave a TGI [36] greater than 100 µM, a TGI [37] greater than 100 µM and a TGI [38] greater than 100 µM. It also gave a TGI [59] greater than 100 µM, a TGI [39] greater than 100 µM and a TGI [41] greater than 100 µM. For the same compound, the TGI [42] was greater than 100 µM, the TGI [43] was greater than 100 µM and the TGI [44] was greater than 100 µM. It also gave a TGI [46] greater than 100 µM, a TGI [47] greater than 100 µM and a TGI [48] greater than 100 µM. It also gave a TGI [49] greater than 100 µM, a TGI [50] greater than 100 µM and a TGI [51] greater than 100 µM. The TGI [52] was greater than 100 µM and the TGI [54] was greater than 100 µM.
Compound `C=CCOn1c(C=C)nc2c(C)cccc21` has a TGI [1] of 13 µM, a TGI [2] of 19.1 µM and a TGI [3] of 12.1 µM. For the same compound, the TGI [4] was 17 µM, the TGI [5] was 26.5 µM and the TGI [6] was 4.87 µM. The TGI [7] was greater than 100 µM, the TGI [8] was 12.5 µM and the TGI [9] was 25.7 µM. It also gave a TGI [10] of 7.25 µM, a TGI [11] greater than 100 µM and a TGI [12] of 13.2 µM. It also gave a TGI [13] of 7.51 µM, a TGI [14] of 29.2 µM and a TGI [15] of 17.1 µM. For the same compound, the TGI [16] was 5.25 µM, the TGI [17] was 3.4 µM and the TGI [18] was 12.6 µM. For the same compound, the TGI [19] was 28 µM, the TGI [20] was 7.15 µM and the TGI [21] was 22 µM. The TGI [22] was 3.6 µM, the TGI [23] was 14.4 µM and the TGI [24] was 4.97 µM. The TGI [25] was 17.8 µM, the TGI [26] was 11.2 µM and the TGI [27] was 14.5 µM. It also gave a TGI [28] of 11.6 µM, a TGI [29] of 14.8 µM and a TGI [30] of 24.1 µM. For the same compound, the TGI [31] was 24 µM, the TGI [32] was 34.4 µM and the TGI [57] was 12.1 µM. For the same compound, the TGI [34] was 21 µM, the TGI [58] was 4.79 µM and the TGI [35] was 6.03 µM. For the same compound, the TGI [36] was 21.5 µM, the TGI [37] was 16.9 µM and the TGI [38] was 3.68 µM. The TGI [59] was 17.9 µM, the TGI [39] was 13.9 µM and the TGI [40] was 12.5 µM. It also gave a TGI [41] of 11.4 µM, a TGI [42] of 12.2 µM and a TGI [43] of 8.05 µM. It also gave a TGI [44] of 4.84 µM, a TGI [45] of 5.1 µM and a TGI [46] of 20.6 µM. The TGI [47] was 22.7 µM, the TGI [48] was 12.7 µM and the TGI [50] was 23.3 µM. For the same compound, the TGI [51] was 12.3 µM, the TGI [52] was 5.83 µM and the TGI [53] was 5.04 µM. It also gave a TGI [54] of 6.93 µM.
Work on `C[C@@H](C[C@@H](O)[C@H](O)C(C)(C)O)[C@H]1CC=C2[C@]3(C)[C@H](O)C[C@H]4C(C)(C)[C@H](O)CC[C@]4(C)[C@H]3CC[C@@]21C` yielded a TGI [1] of 32.8 µM, a TGI [2] of 31.1 µM and a TGI [55] of 35.7 µM. For the same compound, the TGI [3] was 28 µM, the TGI [4] was 29.6 µM and the TGI [5] was 32.2 µM. For the same compound, the TGI [6] was 28 µM, the TGI [7] was 33.8 µM and the TGI [8] was 36.7 µM. It also gave a TGI [9] of 28.5 µM, a TGI [11] of 50.4 µM and a TGI [12] of 31 µM. It also gave a TGI [13] of 26.2 µM, a TGI [14] of 26.1 µM and a TGI [15] of 48.2 µM. It also gave a TGI [16] of 30 µM, a TGI [17] of 31.4 µM and a TGI [18] greater than 100 µM. The TGI [19] was 28 µM, the TGI [20] was 27.4 µM and the TGI [21] was 28.5 µM. For the same compound, the TGI [22] was 28.5 µM, the TGI [23] was 26.4 µM and the TGI [24] was 34.7 µM. For the same compound, the TGI [25] was 37.9 µM, the TGI [26] was 32.3 µM and the TGI [56] was 35.7 µM. For the same compound, the TGI [27] was 39.1 µM, the TGI [28] was 26.2 µM and the TGI [29] was 27.4 µM. For the same compound, the TGI [30] was 33.6 µM, the TGI [31] was 27.5 µM and the TGI [32] was 27.1 µM. For the same compound, the TGI [33] was 28.1 µM, the TGI [57] was 32 µM and the TGI [34] was 28.6 µM. For the same compound, the TGI [58] was 34.9 µM, the TGI [35] was 28.7 µM and the TGI [36] was 32.7 µM. It also gave a TGI [37] of 41.1 µM, a TGI [38] of 40.8 µM and a TGI [59] of 28.5 µM. The TGI [39] was 36.1 µM, the TGI [41] was 29.5 µM and the TGI [42] was 30 µM. It also gave a TGI [43] of 32.4 µM, a TGI [44] of 32.1 µM and a TGI [45] of 40.5 µM. The TGI [46] was 41.7 µM, the TGI [47] was 30.1 µM and the TGI [48] was 28.1 µM. For the same compound, the TGI [49] was 30.8 µM, the TGI [50] was 33.4 µM and the TGI [51] was 28.6 µM. The TGI [52] was 28.2 µM and the TGI [53] was 30.2 µM.
